Patent US10973784B2, “Compositions and methods for treating Alzheimer's disease and Parkinson's disease” (Biotie Therapies, Inc., priority 2016, dated 2021)
Several values for one entry are separate records, joined by “and”; a condition that tells them apart may be missing. Equal values may be shown once. Read-outs that look alike come from different tables or passages of the source.

Key:
5-HT6 receptor = 5-HT6 receptor (Homo sapiens, UniProt P50406); conditions: cited from earlier work
5-HT2B receptor = 5-HT2B receptor (Homo sapiens, UniProt P41595); conditions: cited from earlier work
5-HT2A receptor = 5-HT2A receptor (Homo sapiens, UniProt P28223); conditions: cited from earlier work
[1] = Pharmacokinetic analysis of SYN120 tablets, single oral dose (Example 8); type: in vivo, human; conditions: for half-life / Tmax / AUC(0-t) / AUC(0-inf) / Cmax: human, plasma
Experimental: Pharmacokinetic (PK) analysis was performed on 42 subjects (36 males; 6 females) who received SYN120 oral tablets. In this study, subjects received a single oral dose of SYN120 at one of the following doses: 2 mg; 10 mg; 30 mg; 100 mg; 300 mg; and 600 mg. The SYN120 oral tablets used in this study were formulated for immediate release at tablet strengths of 2 mg, 10 mg, and 50 mg. The tablets were formulated using lactose monohydrate, corn starch, sodium starch glycolate, povidone, sodium lauryl sulfate, magnesium stearate, and the coating agent Opadry Yellow. Blood samples were collected at predose and 0.5, 1, 1.5, 2, 3, 4, 6, 8, 12, 16, 24, 32, 36, 48, and 72 hours postdose. During the treatments at 100 mg and higher, the protocol was amended to include an additional blood sample on Study Day 7 (nominal time of 151 hours). Following oral administration, SYN120 absorption was rapid and plasma levels were measurable in all subjects at the first time point (0.5 hours).
Table 14 below provides a summary of the mean PK parameters of plasma SYN120 for all doses.

[2] = Plasma concentrations of SYN120 at 100 mg QD after titration (Example 10); type: in vivo, human; conditions: for Plasma concentration of SYN120, individual samples: 100 mg QD after titration; for Plasma concentration of SYN120, Max / Plasma concentration of SYN120, Median / Plasma concentration of SYN120, Min / Plasma concentration of SYN120, Mean: 100 mg QD
Experimental: Patients taking SYN120 are titrated from a starting dose of 20 mg SYN120 QD for the first 7 days, followed by 50 mg SYN120 QD for the next 7 days, then 100 mg SYN120 QD for the remaining portion of the study. Plasma samples are taken on study weeks 4, 8 and 16, and a shown below in Table 17.

[3] = female, oral, 100 mg single dose, females, arithmetic mean
[4] = female, single oral dose 100 mg (females), Cohort E, geometric mean
[5] = single oral dose 2 mg, Cohort A, geometric mean
[6] = single oral dose 10 mg, Cohort B, geometric mean
[7] = single oral dose 30 mg, Cohort C, geometric mean
[8] = single oral dose 300 mg, Cohort F, geometric mean
[9] = single oral dose 600 mg, Cohort G, geometric mean
[10] = male, oral, 100 mg single dose, males, arithmetic mean
[11] = male, single oral dose 100 mg (males), Cohort D, geometric mean
[12] = single oral dose 2 mg, Cohort A, arithmetic mean ±SD
[13] = single oral dose 10 mg, Cohort B, arithmetic mean ±SD
[14] = single oral dose 30 mg, Cohort C, arithmetic mean ±SD
[15] = single oral dose 100 mg (females), Cohort E, arithmetic mean ±SD
[16] = single oral dose 100 mg (males), Cohort D, arithmetic mean ±SD
[17] = single oral dose 300 mg, Cohort F, arithmetic mean ±SD
[18] = single oral dose 600 mg, Cohort G, arithmetic mean ±SD

5-HT6 receptor, sequence (P50406 whole entry): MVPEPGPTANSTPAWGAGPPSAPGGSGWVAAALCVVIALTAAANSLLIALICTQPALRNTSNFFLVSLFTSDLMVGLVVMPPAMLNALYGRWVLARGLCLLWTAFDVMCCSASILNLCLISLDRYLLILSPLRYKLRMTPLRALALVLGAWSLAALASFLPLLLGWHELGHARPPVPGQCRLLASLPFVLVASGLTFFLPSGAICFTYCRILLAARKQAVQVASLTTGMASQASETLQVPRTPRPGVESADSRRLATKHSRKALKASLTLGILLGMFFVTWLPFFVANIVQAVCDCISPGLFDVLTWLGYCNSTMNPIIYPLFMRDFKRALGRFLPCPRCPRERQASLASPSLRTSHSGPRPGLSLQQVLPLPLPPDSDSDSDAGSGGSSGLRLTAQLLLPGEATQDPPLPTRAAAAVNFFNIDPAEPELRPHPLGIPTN
5-HT2B receptor, sequence (P41595 whole entry): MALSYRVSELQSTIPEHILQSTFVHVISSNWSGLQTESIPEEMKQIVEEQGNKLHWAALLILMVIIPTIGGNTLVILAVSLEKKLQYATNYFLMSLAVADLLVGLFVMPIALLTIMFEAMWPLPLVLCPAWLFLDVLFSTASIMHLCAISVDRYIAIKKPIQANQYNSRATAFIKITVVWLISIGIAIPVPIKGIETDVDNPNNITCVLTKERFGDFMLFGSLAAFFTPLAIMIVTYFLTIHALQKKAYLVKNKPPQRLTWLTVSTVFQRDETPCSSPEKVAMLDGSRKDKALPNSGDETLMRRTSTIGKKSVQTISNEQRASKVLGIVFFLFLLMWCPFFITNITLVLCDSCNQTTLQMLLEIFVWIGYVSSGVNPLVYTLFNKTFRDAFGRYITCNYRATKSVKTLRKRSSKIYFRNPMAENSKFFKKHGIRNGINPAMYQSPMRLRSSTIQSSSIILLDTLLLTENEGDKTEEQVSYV
5-HT2A receptor, sequence (P28223 whole entry): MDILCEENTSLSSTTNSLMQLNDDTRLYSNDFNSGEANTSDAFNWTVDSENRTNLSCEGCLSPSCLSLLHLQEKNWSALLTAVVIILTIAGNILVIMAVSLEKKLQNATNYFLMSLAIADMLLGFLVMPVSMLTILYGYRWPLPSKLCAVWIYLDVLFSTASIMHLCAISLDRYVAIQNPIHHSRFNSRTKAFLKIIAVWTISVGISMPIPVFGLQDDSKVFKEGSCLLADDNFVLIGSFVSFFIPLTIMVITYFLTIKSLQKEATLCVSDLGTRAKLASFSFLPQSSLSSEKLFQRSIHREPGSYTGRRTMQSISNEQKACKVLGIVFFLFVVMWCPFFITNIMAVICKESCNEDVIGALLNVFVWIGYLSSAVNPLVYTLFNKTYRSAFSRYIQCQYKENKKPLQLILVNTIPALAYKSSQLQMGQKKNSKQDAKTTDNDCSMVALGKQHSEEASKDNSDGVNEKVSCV

half-life ([1]; both sexes, oral, range across single-dose treatment groups, read-out: mean apparent elimination half-life): 8.45 to 12.4 h
Tmax ([1]; both sexes, oral, single doses of 100 mg and above, read-out: Tmax estimates): ~4 h
AUC(0-t) ([1]; female, oral, 100 mg, 100 mg single dose, females, arithmetic mean, read-out: AUC0-24): 4670 ± 2990 ng·h/mL
AUC(0-t) ([1]; female, oral, 100 mg, 100 mg single dose, females, arithmetic mean, read-out: AUC0-t): 5960 ± 3650 ng·h/mL
AUC(0-inf) [1, 3]: 5980 ± 3660 ng·h/mL
Cmax [1, 3]: 532 ± 218 ng/mL
AUC(0-t) ([1]; female, po, 100 mg, single oral dose 100 mg (females), Cohort E, geometric mean, read-out: AUC0-24): 4000 ng·h/mL
AUC(0-t) ([1]; female, po, 100 mg, single oral dose 100 mg (females), Cohort E, geometric mean, read-out: AUC0-t): 5100 ng·h/mL
half-life ([1]; female, single oral dose 100 mg (females), Cohort E, arithmetic mean ±SD, read-out: t1/2 (converted)): 12.4 h
AUC(0-inf) [1, 4]: 5120 ng·h/mL
Cmax [1, 4]: 498 ng/mL
Tmax ([1]; female, single oral dose 100 mg (females), Cohort E, median, read-out: Tmax): 2.51 h
half-life ([1]; oral, general statement, read-out: elimination half-life (t1/2)): 8 to 12 h
Tmax ([1]; oral, single dose 2 to 30 mg, on average, read-out: Tmax): ~2 h
AUC(0-t) ([1]; po, 2 mg, single oral dose 2 mg, Cohort A, geometric mean, read-out: AUC0-24): 118 ng·h/mL
AUC(0-t) ([1]; po, 2 mg, single oral dose 2 mg, Cohort A, geometric mean, read-out: AUC0-t): 139 ng·h/mL
AUC(0-t) ([1]; po, 10 mg, single oral dose 10 mg, Cohort B, geometric mean, read-out: AUC0-24): 351 ng·h/mL
AUC(0-t) ([1]; po, 10 mg, single oral dose 10 mg, Cohort B, geometric mean, read-out: AUC0-t): 384 ng·h/mL
AUC(0-t) ([1]; po, 30 mg, single oral dose 30 mg, Cohort C, geometric mean, read-out: AUC0-24): 1540 ng·h/mL
AUC(0-t) ([1]; po, 30 mg, single oral dose 30 mg, Cohort C, geometric mean, read-out: AUC0-t): 1750 ng·h/mL
AUC(0-t) ([1]; po, 300 mg, single oral dose 300 mg, Cohort F, geometric mean, read-out: AUC0-24): 21300 ng·h/mL
AUC(0-t) ([1]; po, 300 mg, single oral dose 300 mg, Cohort F, geometric mean, read-out: AUC0-t): 27400 ng·h/mL
AUC(0-t) ([1]; po, 600 mg, single oral dose 600 mg, Cohort G, geometric mean, read-out: AUC0-24): 27600 ng·h/mL
AUC(0-t) ([1]; po, 600 mg, single oral dose 600 mg, Cohort G, geometric mean, read-out: AUC0-t): 42500 ng·h/mL
half-life ([1]; single oral dose 2 mg, Cohort A, arithmetic mean ±SD, read-out: t1/2 (converted)): 11.4 ± 5.11 h
AUC(0-inf) [1, 5]: 146 ng·h/mL
Cmax [1, 5]: 11.8 ng/mL
Tmax ([1]; single oral dose 2 mg, Cohort A, median, read-out: Tmax): 2.02 h
half-life ([1]; single oral dose 10 mg, Cohort B, arithmetic mean ±SD, read-out: t1/2 (converted)): 8.45 ± 2.31 h
AUC(0-inf) [1, 6]: 389 ng·h/mL
Cmax [1, 6]: 48.7 ng/mL
Tmax ([1]; single oral dose 10 mg, Cohort B, median, read-out: Tmax): 1.76 h
half-life ([1]; single oral dose 30 mg, Cohort C, arithmetic mean ±SD, read-out: t1/2 (converted)): 8.92 ± 1.39 h
AUC(0-inf) [1, 7]: 1770 ng·h/mL
Cmax [1, 7]: 179 ng/mL
Tmax ([1]; single oral dose 30 mg, Cohort C, median, read-out: Tmax): 2.26 h
half-life ([1]; single oral dose 300 mg, Cohort F, arithmetic mean ±SD, read-out: t1/2 (converted)): 9.58 ± 3.46 h
AUC(0-inf) [1, 8]: 27400 ng·h/mL
Cmax [1, 8]: 1730 ng/mL
Tmax ([1]; single oral dose 300 mg, Cohort F, median, read-out: Tmax): 3.53 h
half-life ([1]; single oral dose 600 mg, Cohort G, arithmetic mean ±SD, read-out: t1/2 (converted)): 12 ± 4.81 h
AUC(0-inf) [1, 9]: 42900 ng·h/mL
Cmax [1, 9]: 2080 ng/mL
Tmax ([1]; single oral dose 600 mg, Cohort G, median, read-out: Tmax): 4.51 h
AUC(0-t) ([1]; male, oral, 100 mg, 100 mg single dose, males, arithmetic mean, read-out: AUC0-24): 6470 ± 3330 ng·h/mL
AUC(0-t) ([1]; male, oral, 100 mg, 100 mg single dose, males, arithmetic mean, read-out: AUC0-t): 7980 ± 4800 ng·h/mL
AUC(0-inf) [1, 10]: 8060 ± 4880 ng·h/mL
Cmax [1, 10]: 623 ± 180 ng/mL
AUC(0-t) ([1]; male, po, 100 mg, single oral dose 100 mg (males), Cohort D, geometric mean, read-out: AUC0-24): 5870 ng·h/mL
AUC(0-t) ([1]; male, po, 100 mg, single oral dose 100 mg (males), Cohort D, geometric mean, read-out: AUC0-t): 7010 ng·h/mL
half-life ([1]; male, single oral dose 100 mg (males), Cohort D, arithmetic mean ±SD, read-out: t1/2 (converted)): 11 h
AUC(0-inf) [1, 11]: 7060 ng·h/mL
Cmax [1, 11]: 604 ng/mL
Tmax ([1]; male, single oral dose 100 mg (males), Cohort D, median, read-out: Tmax): 4 h
CL/F [1, 12]: 18.8 ± 15.2 L/h
Vs/F [1, 12]: 264 ± 191 L
CL/F [1, 13]: 29.0 ± 15.0 L/h
Vs/F [1, 13]: 379 ± 283 L
CL/F [1, 14]: 19.2 ± 9.58 L/h
Vs/F [1, 14]: 253 ± 149 L
CL/F [1, 15]: 22.5 L/h and 22.5 ± 11.9 L/h
Vs/F [1, 15]: 448 L and 448 ± 500 L
CL/F [1, 16]: 15.8 L/h and 15.8 ± 7.56 L/h
Vs/F [1, 16]: 227 L and 227 ± 94.2 L
CL/F [1, 17]: 11.7 ± 4.81 L/h
Vs/F [1, 17]: 154 ± 57.3 L
CL/F [1, 18]: 15.7 ± 7.96 L/h
Vs/F [1, 18]: 246 ± 97.6 L
Plasma concentration of SYN120, Max ([2]; time range 0.5 h-1.5 h): 1310 ng/mL
Plasma concentration of SYN120, Median ([2]; time range 0.5 h-1.5 h): 309 ng/mL
Plasma concentration of SYN120, Min ([2]; time range 0.5 h-1.5 h): 8.57 ng/mL
Plasma concentration of SYN120, Mean ([2]; time range 0.5 h-1.5 h, n 7): 406.1 ng/mL
Plasma concentration of SYN120, Max ([2]; time range 1.5 h-2.5 h): 705 ng/mL
Plasma concentration of SYN120, Median ([2]; time range 1.5 h-2.5 h): 372 ng/mL
Plasma concentration of SYN120, Min ([2]; time range 1.5 h-2.5 h): 120 ng/mL
Plasma concentration of SYN120, Mean ([2]; time range 1.5 h-2.5 h, n 8): 396.5 ng/mL
Plasma concentration of SYN120, Max ([2]; time range 2.5 h-3.5 h): 1660 ng/mL
Plasma concentration of SYN120, Median ([2]; time range 2.5 h-3.5 h): 767 ng/mL
Plasma concentration of SYN120, Min ([2]; time range 2.5 h-3.5 h): 355 ng/mL
Plasma concentration of SYN120, Mean ([2]; time range 2.5 h-3.5 h, n 7): 929.3 ng/mL
Plasma concentration of SYN120, Max ([2]; time range 3.5 h-4.5 h): 1470 ng/mL
Plasma concentration of SYN120, Median ([2]; time range 3.5 h-4.5 h): 1023 ng/mL
Plasma concentration of SYN120, Min ([2]; time range 3.5 h-4.5 h): 24.2 ng/mL
Plasma concentration of SYN120, Mean ([2]; time range 3.5 h-4.5 h, n 6): 889.4 ng/mL
Plasma concentration of SYN120, Max ([2]; time range 4.5 h-7.5 h): 1210 ng/mL
Plasma concentration of SYN120, Median ([2]; time range 4.5 h-7.5 h): 920 ng/mL
Plasma concentration of SYN120, Min ([2]; time range 4.5 h-7.5 h): 124 ng/mL
Plasma concentration of SYN120, Mean ([2]; time range 4.5 h-7.5 h, n 6): 779.5 ng/mL
time of peak plasma level after administration ([2]; once per day maintenance dosing): 1 to 4 h
SMILES: NC(=O)NC[C@@H]1CCCc2cc(S(=O)(=O)c3cccc(F)c3)ccc21 [SYN120]
pKi (5-HT6 receptor): 9.6
pKi (5-HT2B receptor): 7.7
pKi (5-HT2A receptor): 7.8
Plasma concentration of SYN120, individual samples ([2]; time range 0.5 h-1.5 h): 1310 ng/mL and 297 ng/mL and 116 ng/mL and 476 ng/mL and 326 ng/mL and 8.57 ng/mL and 309 ng/mL
Plasma concentration of SYN120, individual samples ([2]; time range 1.5 h-2.5 h): 120 ng/mL and 558 ng/mL and 314 ng/mL and 705 ng/mL and 229 ng/mL and 235 ng/mL and 430 ng/mL and 581 ng/mL
Plasma concentration of SYN120, individual samples ([2]; time range 2.5 h-3.5 h): 1660 ng/mL and 355 ng/mL and 473 ng/mL and 410 ng/mL and 1220 ng/mL and 1620 ng/mL and 767 ng/mL
Plasma concentration of SYN120, individual samples ([2]; time range 3.5 h-4.5 h): 1330 ng/mL and 855 ng/mL and 24.2 ng/mL and 467 ng/mL and 1190 ng/mL and 1470 ng/mL
Plasma concentration of SYN120, individual samples ([2]; time range 4.5 h-7.5 h): 1160 ng/mL and 124 ng/mL and 344 ng/mL and 989 ng/mL and 1210 ng/mL and 850 ng/mL
